System: terminal buds of Swietenia macrophylla
Assay: Induction of multiple shoots from terminal buds on modified B5 medium
Assay type: cell-based
Settings: IBA 0 mg/l
Method: Terminal buds were excised from mature trees of Swietenia macrophylla and subjected to surface sterilization in 70% ethanol for 30 seconds and then in 2% sodium hypochlorite for 6 minutes, washed several times with sterilized water and dried on a sterilized filter paper.
To a modified B5 medium (which was a B5 medium amounts of all the components were each made a half were added 30 g/l of sucrose, and 0 to 0.02 mg/l of IBA and 0.02 to 1.0 mg/l of BAP as plant growth regulators, followed by pH adjustment to 5.7 and sterilization. The medium so prepared was used as a multiple shoots-inducing medium, and was used at a culturing temperature of 26±2° C. under illumination of fluorescent lamps for 16 hours per day (3,000 to 9,000 Lux). One to 3 months after the start of culturing, multiple shoots were induced.

With `c1ccc(CNc2ncnc3[nH]cnc23)cc1` [BAP, benzylaminopurine] the “Number of formed multiple shoots/Number of total tested terminal buds” value (BAP 0.02 mg/l) was 1/20, the “Number of formed multiple shoots/Number of total tested terminal buds” value (BAP 0.2 mg/l) was 5/20 and the “Number of formed multiple shoots/Number of total tested terminal buds” value (BAP 1.0 mg/l) was 8/20.
